Measured values reported in ChEMBL document CHEMBL2062364, “Discovery and optimization of new benzimidazole- and benzoxazole-pyrimidone selective PI3Kβ inhibitors for the treatment of phosphatase and TENsin homologue (PTEN)-deficient cancers” (J Med Chem, 2012).
In brackets after ≈: the same amount, converted by molar mass.

Legend:
[1] = biological target: Serine/threonine-protein kinase mTOR (Homo sapiens, UniProt P42345); experiment: Inhibition of mTOR
[2] = biological target: T1, Phosphatidylinositol 4,5-bisphosphate 3-kinase catalytic subunit beta isoform (Homo sapiens, UniProt P42338); experiment: Inhibition of N-terminus poly-His tagged human PI3Kbeta expressed in baculovirus infected insect […] cells coexpressing p85alpha using PI(4,5)P2 as substrate preincubated with compound for 15 mins measured after 10 mins by HTRF assay
T1 sequence (P42338 whole entry, canonical isoform): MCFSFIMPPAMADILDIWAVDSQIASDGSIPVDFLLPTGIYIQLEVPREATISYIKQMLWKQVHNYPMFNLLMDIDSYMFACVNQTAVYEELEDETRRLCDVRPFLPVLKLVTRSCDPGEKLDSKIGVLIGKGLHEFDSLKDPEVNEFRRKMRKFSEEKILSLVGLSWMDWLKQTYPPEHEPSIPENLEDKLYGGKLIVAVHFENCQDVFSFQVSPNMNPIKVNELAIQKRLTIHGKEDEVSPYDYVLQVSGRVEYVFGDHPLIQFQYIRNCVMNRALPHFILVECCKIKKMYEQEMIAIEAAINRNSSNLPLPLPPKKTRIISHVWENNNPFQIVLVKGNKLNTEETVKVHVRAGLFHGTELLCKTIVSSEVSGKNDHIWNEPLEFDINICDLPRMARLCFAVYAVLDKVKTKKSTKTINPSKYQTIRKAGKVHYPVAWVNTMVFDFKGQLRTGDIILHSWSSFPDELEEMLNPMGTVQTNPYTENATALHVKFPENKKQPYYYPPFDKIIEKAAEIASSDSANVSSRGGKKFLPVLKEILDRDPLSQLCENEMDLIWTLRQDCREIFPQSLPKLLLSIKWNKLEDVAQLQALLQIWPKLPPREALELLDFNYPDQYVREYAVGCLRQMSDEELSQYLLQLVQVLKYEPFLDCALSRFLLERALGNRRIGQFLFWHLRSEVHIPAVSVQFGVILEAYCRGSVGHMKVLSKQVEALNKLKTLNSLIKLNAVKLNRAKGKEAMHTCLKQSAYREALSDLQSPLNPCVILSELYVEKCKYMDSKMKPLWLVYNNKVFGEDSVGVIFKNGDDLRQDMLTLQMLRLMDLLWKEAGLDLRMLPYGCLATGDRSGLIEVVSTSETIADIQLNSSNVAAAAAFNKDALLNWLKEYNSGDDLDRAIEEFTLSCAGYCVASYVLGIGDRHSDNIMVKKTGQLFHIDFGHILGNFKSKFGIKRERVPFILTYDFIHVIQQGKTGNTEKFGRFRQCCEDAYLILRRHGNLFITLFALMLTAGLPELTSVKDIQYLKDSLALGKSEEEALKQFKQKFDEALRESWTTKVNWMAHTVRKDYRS

[3] = Apparent permeability of the compound across human Caco2 cells; assay type: ADME, cell-based; conditions: Caco-2
[4] = biological target: T2, Phosphatidylinositol 4,5-bisphosphate 3-kinase catalytic subunit delta isoform (Homo sapiens, UniProt O00329); experiment: Inhibition of poly-His tagged human PI3Kdelta expressed in baculovirus infected insect sf9 cells coexpressing p85alpha using PI(4,5)P2 as substrate preincubated with compound for 15 mins measured after 10 mins by HTRF assay
T2 sequence (O00329 whole entry): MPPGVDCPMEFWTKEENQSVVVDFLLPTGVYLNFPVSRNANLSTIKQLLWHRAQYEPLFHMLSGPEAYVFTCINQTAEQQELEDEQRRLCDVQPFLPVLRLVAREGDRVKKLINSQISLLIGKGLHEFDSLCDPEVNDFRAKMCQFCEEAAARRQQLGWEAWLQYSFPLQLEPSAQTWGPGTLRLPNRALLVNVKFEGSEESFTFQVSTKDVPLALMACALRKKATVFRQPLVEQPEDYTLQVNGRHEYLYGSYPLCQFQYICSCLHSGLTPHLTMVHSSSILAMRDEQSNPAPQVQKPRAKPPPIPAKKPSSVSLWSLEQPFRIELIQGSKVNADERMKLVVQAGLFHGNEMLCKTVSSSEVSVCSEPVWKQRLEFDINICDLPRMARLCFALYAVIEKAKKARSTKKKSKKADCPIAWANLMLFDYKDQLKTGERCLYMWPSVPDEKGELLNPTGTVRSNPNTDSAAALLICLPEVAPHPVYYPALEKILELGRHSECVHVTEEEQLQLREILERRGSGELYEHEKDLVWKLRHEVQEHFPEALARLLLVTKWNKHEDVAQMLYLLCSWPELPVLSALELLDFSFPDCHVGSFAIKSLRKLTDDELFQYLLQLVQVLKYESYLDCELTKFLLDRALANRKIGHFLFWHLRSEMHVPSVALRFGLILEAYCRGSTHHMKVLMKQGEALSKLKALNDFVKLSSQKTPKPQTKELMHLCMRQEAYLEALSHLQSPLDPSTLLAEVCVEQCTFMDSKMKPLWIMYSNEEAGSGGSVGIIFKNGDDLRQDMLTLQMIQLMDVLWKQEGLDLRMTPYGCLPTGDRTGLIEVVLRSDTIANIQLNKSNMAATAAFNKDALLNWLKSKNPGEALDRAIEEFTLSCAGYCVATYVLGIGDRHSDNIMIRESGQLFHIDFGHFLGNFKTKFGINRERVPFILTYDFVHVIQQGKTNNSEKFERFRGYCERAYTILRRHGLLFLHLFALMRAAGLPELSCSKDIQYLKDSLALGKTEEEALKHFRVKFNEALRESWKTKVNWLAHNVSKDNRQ

[5] = Inhibition of mTORC2-mediated Akt phosphorylation at Ser473 residue in PTEN-deficient human PC3 cells after 2 hrs by Western blot analysis; assay type: cell-based; conditions: PC-3, 2 h
[6] = Drug metabolism in mouse liver microsomes; assay type: ADME, Microsome; conditions: read-out: Drug metabolism
[7] = biological target: T1, Phosphatidylinositol 4,5-bisphosphate 3-kinase catalytic subunit beta isoform; experiment: Inhibition of human PI3Kbeta-mediated Akt phosphorylation at T308 residue expressed in PTEN-deficient human PC3 cells after 2 hrs by Western blot analysis; assay type: cell-based, PC-3
[8] = Thermodynamic solubility of the compound in phosphate buffer at pH 7.4 after 16 hrs by HPLC analysis; assay type: physicochemical; conditions: read-out: Therm_solubility
[9] = Drug metabolism in human liver microsomes; assay type: ADME, Microsome; conditions: read-out: Drug metabolism
[10] = biological target: T3, Phosphatidylinositol 4,5-bisphosphate 3-kinase catalytic subunit alpha isoform (Homo sapiens, UniProt P42336); experiment: Inhibition of N-terminus poly-His tagged human PI3Kalpha expressed in baculovirus infected insect sf9 cells coexpressing p85alpha using PI(4,5)P2 as substrate preincubated with compound for 15 mins measured after 10 mins by HTRF assay
T3 sequence (P42336 whole entry, canonical isoform): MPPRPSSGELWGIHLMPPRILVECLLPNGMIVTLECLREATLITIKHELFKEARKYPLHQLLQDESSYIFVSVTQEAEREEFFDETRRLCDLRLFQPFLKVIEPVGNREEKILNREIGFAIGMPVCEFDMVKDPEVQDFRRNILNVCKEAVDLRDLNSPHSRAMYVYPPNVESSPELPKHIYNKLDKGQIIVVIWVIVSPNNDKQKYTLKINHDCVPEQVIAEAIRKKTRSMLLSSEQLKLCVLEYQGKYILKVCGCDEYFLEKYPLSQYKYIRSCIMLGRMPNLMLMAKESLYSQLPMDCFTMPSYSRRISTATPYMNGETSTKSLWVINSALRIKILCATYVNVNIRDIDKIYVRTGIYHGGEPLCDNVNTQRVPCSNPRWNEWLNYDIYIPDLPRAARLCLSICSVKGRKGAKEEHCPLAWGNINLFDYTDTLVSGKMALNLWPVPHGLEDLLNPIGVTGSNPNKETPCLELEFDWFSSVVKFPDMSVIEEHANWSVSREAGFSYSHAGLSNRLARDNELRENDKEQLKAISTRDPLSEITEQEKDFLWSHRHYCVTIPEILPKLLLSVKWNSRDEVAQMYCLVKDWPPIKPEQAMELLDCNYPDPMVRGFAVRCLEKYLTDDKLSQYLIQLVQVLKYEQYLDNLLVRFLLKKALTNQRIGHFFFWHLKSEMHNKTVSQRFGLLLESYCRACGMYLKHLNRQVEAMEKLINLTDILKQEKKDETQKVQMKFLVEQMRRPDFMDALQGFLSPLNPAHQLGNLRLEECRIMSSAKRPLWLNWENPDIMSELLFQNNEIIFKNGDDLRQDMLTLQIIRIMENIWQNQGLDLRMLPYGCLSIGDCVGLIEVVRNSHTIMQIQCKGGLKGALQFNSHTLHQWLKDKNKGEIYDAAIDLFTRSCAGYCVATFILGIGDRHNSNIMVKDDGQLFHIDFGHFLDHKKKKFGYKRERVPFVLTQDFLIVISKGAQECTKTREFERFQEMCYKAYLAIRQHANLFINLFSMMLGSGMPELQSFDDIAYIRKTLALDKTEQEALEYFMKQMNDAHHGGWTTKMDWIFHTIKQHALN

Cytochrome P450 3A4 = Cytochrome P450 3A4 (Homo sapiens, UniProt P08684); experiment: Inhibition of human recombinant CPY3A4
Cytochrome P450 3A4, sequence (P08684 whole entry, canonical isoform): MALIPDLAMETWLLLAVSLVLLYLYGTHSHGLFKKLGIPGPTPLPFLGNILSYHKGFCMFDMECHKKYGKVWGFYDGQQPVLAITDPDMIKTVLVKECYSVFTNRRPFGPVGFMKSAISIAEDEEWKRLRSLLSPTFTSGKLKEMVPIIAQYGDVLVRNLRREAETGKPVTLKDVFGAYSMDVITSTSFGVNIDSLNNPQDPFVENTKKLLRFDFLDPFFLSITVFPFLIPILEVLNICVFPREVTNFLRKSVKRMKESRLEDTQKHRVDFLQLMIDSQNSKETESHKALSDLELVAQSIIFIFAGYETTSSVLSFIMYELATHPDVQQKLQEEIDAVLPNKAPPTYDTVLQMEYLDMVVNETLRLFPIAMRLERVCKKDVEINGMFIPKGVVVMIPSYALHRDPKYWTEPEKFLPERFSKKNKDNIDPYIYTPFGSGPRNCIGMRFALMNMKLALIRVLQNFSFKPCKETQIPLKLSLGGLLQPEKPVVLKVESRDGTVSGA

[11] = biological target: T1, Phosphatidylinositol 4,5-bisphosphate 3-kinase catalytic subunit beta isoform; experiment: Inhibition of human PI3Kbeta-mediated Akt phosphorylation at Ser473 residue expressed in PTEN-deficient human PC3 cells by chemiluminescence assay; assay type: cell-based, PC-3
[12] = biological target: T4, Phosphatidylinositol 4,5-bisphosphate 3-kinase catalytic subunit gamma isoform (Homo sapiens, UniProt P48736); experiment: Inhibition of N-terminus poly-His tagged human PI3Kgamma expressed in baculovirus infected insect sf9 cells using PI(4,5)P2 as substrate preincubated with compound for 15 mins measured after 10 mins by HTRF assay
T4 sequence (P48736 whole entry, canonical isoform): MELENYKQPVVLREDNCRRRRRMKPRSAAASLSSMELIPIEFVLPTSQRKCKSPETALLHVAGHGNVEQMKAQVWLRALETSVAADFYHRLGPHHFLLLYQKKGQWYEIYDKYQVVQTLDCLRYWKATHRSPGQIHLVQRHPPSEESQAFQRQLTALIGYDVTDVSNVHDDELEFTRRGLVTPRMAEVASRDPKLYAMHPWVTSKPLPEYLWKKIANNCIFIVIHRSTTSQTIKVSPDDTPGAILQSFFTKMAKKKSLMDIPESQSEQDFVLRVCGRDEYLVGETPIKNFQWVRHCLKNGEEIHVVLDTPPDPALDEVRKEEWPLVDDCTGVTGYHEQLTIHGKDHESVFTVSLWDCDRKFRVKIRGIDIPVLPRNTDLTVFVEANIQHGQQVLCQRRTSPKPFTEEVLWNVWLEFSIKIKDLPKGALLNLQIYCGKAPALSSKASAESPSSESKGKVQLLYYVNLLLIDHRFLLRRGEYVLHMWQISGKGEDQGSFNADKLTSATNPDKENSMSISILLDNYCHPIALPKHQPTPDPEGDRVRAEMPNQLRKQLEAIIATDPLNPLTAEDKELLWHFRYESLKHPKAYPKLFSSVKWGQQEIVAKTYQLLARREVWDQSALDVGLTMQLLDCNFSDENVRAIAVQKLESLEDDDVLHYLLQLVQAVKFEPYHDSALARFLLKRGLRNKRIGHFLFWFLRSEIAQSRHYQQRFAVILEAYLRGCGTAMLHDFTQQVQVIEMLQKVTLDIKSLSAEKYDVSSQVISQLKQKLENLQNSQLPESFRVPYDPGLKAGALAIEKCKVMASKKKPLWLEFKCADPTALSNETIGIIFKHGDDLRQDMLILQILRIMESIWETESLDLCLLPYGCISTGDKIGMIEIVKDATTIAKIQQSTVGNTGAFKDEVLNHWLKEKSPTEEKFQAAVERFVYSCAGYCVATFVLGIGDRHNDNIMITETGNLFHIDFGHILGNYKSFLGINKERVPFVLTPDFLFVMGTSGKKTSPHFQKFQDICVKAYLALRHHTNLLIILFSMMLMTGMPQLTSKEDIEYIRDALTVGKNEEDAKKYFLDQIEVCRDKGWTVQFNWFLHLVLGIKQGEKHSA

[13] = biological target: T2, Phosphatidylinositol 4,5-bisphosphate 3-kinase catalytic subunit delta isoform; experiment: Inhibition of human PI3Kdelta-mediated Akt phosphorylation at Ser473 residue expressed in mouse MEF-3T3 cells after 0.5 to 2 hrs by Western blot analysis; assay type: cell-based
[14] = biological target: T4, Phosphatidylinositol 4,5-bisphosphate 3-kinase catalytic subunit gamma isoform; experiment: Inhibition of human PI3Kgamma-mediated Akt phosphorylation at Ser473 residue expressed in mouse RAW264.7 cells after 0.5 to 2 hrs by Western blot analysis; assay type: cell-based
[15] = biological target: T3, Phosphatidylinositol 4,5-bisphosphate 3-kinase catalytic subunit alpha isoform; experiment: Inhibition of human PI3Kalpha-mediated Akt phosphorylation at Ser473 residue expressed in human H460 cells after 0.5 to 2 hrs by Western blot analysis; assay type: cell-based

SMILES | IC50 [1] | IC50 [2] | Papp [3] | IC50 [4] | IC50 [5] | metabolised [6] | IC50 [7] | solubility thermodynamic at 16 h [8] | metabolised [9] | IC50 [10] | IC50 (Cytochrome P450 3A4) | IC50 [11] | IC50 [12] | IC50 [13] | IC50 [14] | IC50 [15]
O=c1cc(N2CCOCC2)nc(Cc2nc3ccc(F)cc3[nH]2)[nH]1 | > 10000 nM | 30 nM | 0.2 ×10⁻⁶ cm/s | 219 nM | 41 nM | 0% | 100 nM | 76 µM (≈ 25 µg/mL) | 69% | > 10000 nM | > 40000 nM | 41 nM | > 10000 nM |  |  | 
Cc1cc(C(C)Nc2ccccc2)c2oc(N3CCOCC3)cc(=O)c2c1 (stereo not drawn) |  | 28 nM |  |  | 3 nM |  | 3 nM |  |  |  |  | 3 nM |  |  |  | 
Cn1c(Cc2nc(N3CCOCC3)cc(=O)[nH]2)nc2cccc(-c3ccccc3)c21 | > 10000 nM | 60 nM | 3.9 ×10⁻⁶ cm/s | 181 nM |  | 55% |  | 2 µM (≈ 0.803 µg/mL) | 57% | 4580 nM | > 40000 nM | 17 nM | > 10000 nM |  |  | 
Cn1c(Cc2nc(N3CCOCC3)cc(=O)[nH]2)nc2cc(F)ccc21 | > 10000 nM | 82 nM | 3.1 ×10⁻⁶ cm/s | 855 nM |  | 20% |  | 3 µM (≈ 1.03 µg/mL) | 39% | > 10000 nM | > 40000 nM | 16 nM | > 10000 nM |  |  | 
O=c1cc(N2CCOCC2)nc(Cc2nc3ccccc3n2-c2ccccc2)[nH]1 | > 10000 nM | 75 nM | 4.4 ×10⁻⁶ cm/s | 36 nM |  | 100% |  | 397 µM (≈ 154 µg/mL) | 98% | 6790 nM | > 40000 nM | 8 nM | > 10000 nM |  |  | 
Cc1cc(C(C)Nc2ccccc2)c2nc(N3CCOCC3)cc(=O)n2c1 (stereo not drawn) |  |  |  | 851 nM | 10 nM |  |  |  |  | > 10000 nM |  |  | > 10000 nM | 252 nM | > 1000 nM | > 1000 nM
O=c1cc(N2CCOCC2)nc(Cc2nc3c(-c4ccccc4)c(F)ccc3o2)[nH]1 | > 10000 nM | 8 nM | 37.1 ×10⁻⁶ cm/s | 151 nM |  | 17% |  | 15 µM (≈ 6.1 µg/mL) | 18% | > 10000 nM | > 40000 nM | 6 nM | > 10000 nM |  |  | 

Other lines, results leading:

IC50 [1] | IC50 [2] | Papp [3] | IC50 [4] | IC50 [5] | metabolised [6] | IC50 [7] | solubility thermodynamic at 16 h [8] | metabolised [9] | IC50 [10] | IC50 (Cytochrome P450 3A4) | IC50 [11] | IC50 [12] | IC50 [13] | IC50 [14] | IC50 [15] | SMILES
> 10000 nM | 72 nM | 0.5 ×10⁻⁶ cm/s | 225 nM |  | 48% |  | 221 µM (≈ 75 µg/mL) | 60% | 1000 nM | > 40000 nM | 26 nM | 8270 nM |  |  |  | CCn1c(Cc2nc(N3CCOCC3)cc(=O)[nH]2)nc2ccccc21
> 10000 nM | 82 nM | 19.9 ×10⁻⁶ cm/s | 779 nM |  | 7% |  | 160 µM (≈ 50 µg/mL) | 41% | > 10000 nM | > 40000 nM | 62 nM | > 10000 nM |  |  |  | O=c1cc(N2CCOCC2)nc(Cc2nc3ccccc3o2)[nH]1
> 10000 nM | 46 nM | 16 ×10⁻⁶ cm/s | 854 nM |  | 23% |  | 3 µM (≈ 0.991 µg/mL) | 47% | > 10000 nM | > 40000 nM | 26 nM | > 10000 nM |  |  |  | O=c1cc(N2CCOCC2)nc(Cc2nc3cc(F)ccc3o2)[nH]1
> 10000 nM | 46 nM | 25.5 ×10⁻⁶ cm/s | 398 nM |  | 79% |  | 3 µM (≈ 1.18 µg/mL) | 60% | 4360 nM | 19000 nM | 22 nM | 5740 nM |  |  |  | O=c1cc(N2CCOCC2)nc(Cc2nc3c(-c4cccs4)cccc3o2)[nH]1
> 10000 nM | 90 nM | 32.3 ×10⁻⁶ cm/s | 1180 nM |  | 61% |  | 3 µM (≈ 1.17 µg/mL) | 57% | > 10000 nM | > 40000 nM | 177 nM | > 10000 nM |  |  |  | O=c1cc(N2CCOCC2)nc(Cc2nc3cccc(-c4ccccc4)c3o2)[nH]1
